Test results published in patent publication US20050009858A1, “Imiquimod therapies” (priority 2001, published 2005).
Entries after “also recorded” stand apart in the source; their conditions may differ. Where two headings read alike, the source gives them in different places.

How the values were obtained:
[1] = tested on: Lichen Sclerosus (LS) lesions; experiment: Clinical case: topical imiquimod 5% cream in a patient with penile Lichen Sclerosus; format: in vivo, human; settings: person; for Side effects / local reaction at treated areas: imiquimod 5% cream every other day, reaction after 2 weeks; for Disappearance of LS lesions: imiquimod 5% cream topically every other day for 2 weeks, assessed two weeks after stopping
Excerpt: A person presented to our office (MIM) with the main complaint of whitish patches on the penis of 2 months duration associated with occasional pruritus. […] Because of its immunomodulatory effects, treatment of the LS lesions with imiquimod 5% cream was offered to the patient. It was clearly explained to them that this was an off label use of the medication. They began topical application to the affected areas every other day.

[2] = tested on: infantile hemangioma (IH); experiment: Clinical cases: topical 5% imiquimod cream in 4 patients with infantile hemangioma; format: in vivo, human
Excerpt: The option of topical 5% imiquimod cream at a frequency of three times per week was offered to the parents of 4 patients with IH. In each case this treatment option was found acceptable by both parents, who fully understood that this was an off label use of the medication.
A child presented for consultation with an IH on the frontal scalp (3.0×2.5 cm) that was noticed and enlarged rapidly.
A child presented with a red-grey bulbous, 4.5 cm in diameter IH on the frontal scalp that appeared and grew rapidly. MRI analysis supported the clinical diagnosis of IH. […] The medication at the parent's request was discontinued. […] Imiquimod was restarted and increased to every other day for 6 weeks. […] Therapy was discontinued.
A healthy infant was born with a small reddish, flat IH over the left lower lip that started to grow rapidly. Imiquimod, 5%, cream was applied every other day to the outer lip area only. […] The patient is […] and continues the treatment.
An infant was born with a IH on the right upper eyelid that grew rapidly during their first few months life. An MRI study excluded any involvement of any underling ocular structure. Topical application of imiquimod 5% cream was applied every other day for one month over the entire IH.

IFN-α and TNF-α [3] = settings: nude mice; topical 1 and 5% cream; cited from earlier work
IFN-α and TNF-α [4] = settings: rats; topical 1 and 5% cream; cited from earlier work
[5] = tested on: cytokines including IL-2 and IFN-γ; settings: as a result of IL-12 production; cited from earlier work
[6] = tested on: polyoma virus-induced hemangioendothelioma; settings: topical imiquimod; cited from earlier work
[7] = tested on: epithelioid hemangioendothelioma (EH); experiment: Clinical case: 5% imiquimod topical cream in a patient with epithelioid hemangioendothelioma; format: in vivo, human
Excerpt: EH is a low grade malignant vascular tumor that occurs most commonly in the superficial or deep soft tissues of the body. The patient refused surgery for personal reasons, but acquiesced to the use of 5% imiquimod cream, even though such usage was off label.
A patient developed a nodule on the left cheek that started to grow over the period of 6 months. […] However, they were willing to apply 5% imiquimod topical cream after they were informed of the success of this agent in treatment of some skin cancers and hemangiomas.

CC(C)Cn1cnc2c(N)nc3ccccc3c21 [imiquimod]
Side effects / local reaction at treated areas [1]: strong reaction at the treated areas with pruritus, burning and intermittently mild pain; also recorded: erythematous, edematous plaques that were well defined and did not extend onto uninvolved skin
Side effects / local reaction at treated areas ([1]; listed as Imiquimod): minimal side-effects
Disappearance of LS lesions [1]: complete disappearance of the lesions
Disappearance of LS lesions ([1]; listed as Imiquimod): all the lesions of LS that were treated and developed the reaction had disappeared leaving no signs of any cutaneous change
IH lesion response ([2]; Case 1: frontal scalp IH 3.0×2.5 cm, after 4 weeks of thrice weekly application): less protuberant
Side effects ([2]; Case 1, after 4 weeks of thrice weekly application): marked erythema and crusting
IH lesion response ([2]; Case 1, after therapy discontinued for 2 weeks): marked reduction in the size of the IH
Side effects ([2]; Case 1, application every other day for 2 weeks): reappearance of inflammation and crusting
IH lesion response ([2]; Case 1, follow-up 4 weeks after end of therapy): virtually complete clinical regression of the IH with return to normal skin color
Recurrence at follow-up ([2]; Case 1, most recent follow-up): no recurrence of the lesion
Side effects ([2]; Case 2: frontal scalp IH 4.5 cm, after 3 weeks of 3 times weekly): marked crusting and erythema
IH lesion response ([2]; Case 2, four weeks after the 6 week course): near complete regression of the lesion
IH lesion at last follow-up ([2]; Case 2, last follow-up): the lesion had completely disappeared
Side effects ([2]; Case 2, restarted, every other day for 6 weeks): recurrence of erythema and crusting
IH lesion course after discontinuation ([2]; Case 2, two months after medication discontinued): rapid regrowth of the lesion
Side effects ([2]; Case 3: IH left lower lip, 5% cream every other day to outer lip area, after 2 weeks): marked inflammation and crusting over the lip area
IH lesion response, untreated area ([2]; Case 3, inner buccal mucosa (untreated)): persisted but had also decreased in size
IH lesion response, treated area ([2]; Case 3, outer lip area, after one and a half months of therapy): most of the IH over the outer lip area had regressed
Side effects ([2]; Case 4: IH right upper eyelid, 5% cream every other day): Erythema and crusting developed in two weeks
IH lesion response ([2]; Case 4, after one month of application every other day): regressed almost to the skin level
Neurologic examination ([2]; all patients of the report): none showed any adverse effects
Outcome of IH lesions ([2]; the other two patients, treatment continuing): continue to respond dramatically to treatment
Outcome of IH lesions ([2]; the two patients who completed therapy, at least one year of follow up): complete disappearance of their lesions with no recurrence at least at one year of follow up
IFN-α (IFN-α and TNF-α [3]): local increase
TNF-α (IFN-α and TNF-α [3]): local increase
IFN-α (IFN-α and TNF-α [4]): local increase
TNF-α (IFN-α and TNF-α [4]): local increase
Cytokine production [5]: production of other cytokines including IL-2 and IFN-γ
Apoptosis [6]: increased apoptosis
Intratumoral mast cells [6]: increased intratumoral mast cells
TNF-α level [6]: elevated levels
Tissue inhibitor of metalloproteinases type 1 (TIMP-1) level [6]: elevated levels
Nodule size ([7]; after 2 weeks of application): decreased remarkably in size
Biopsy histology ([7]; biopsy just before surgery): scarring in the central cleared area and some residual tumor with marked inflammation in the peripheral inflamed rim
Lesion course in the interim before surgery ([7]; interim before surgery): continued to improve in the interim, developing a central cleared area
Side effects ([7]; person, 2.5 cm nodule left cheek, after 2 weeks of application): erythema and crusting
Re-biopsy histology ([7]; re-biopsy after 2 weeks of application): persistent hemangioendothelioma but with mild atypia and marked inflammation and fibrosis
Surgical specimen histology ([7]; surgical specimen): only scarring with no evidence of tumor
